Test results reported in patent US9359358B2, “Cyclohexyl azetidine derivatives as JAK inhibitors” (Incyte Holdings Corporation, priority 2011, dated 2016).
Counter-ions that a name gives are not always drawn.

Columns and labels:
human JAK2 = target: T1, human JAK2 (Homo sapiens, UniProt O60674); assay: In Vitro JAK Kinase Assay (HTRF, phosphorylation of a biotinylated peptide), JAK2; format: biochemical; details: assay of Example A
T1 construct: JAK2 (a.a. 828-1132); His tag (N); made in house; host or cells: insect cells (baculovirus)
T1 sequence (O60674 828-1132): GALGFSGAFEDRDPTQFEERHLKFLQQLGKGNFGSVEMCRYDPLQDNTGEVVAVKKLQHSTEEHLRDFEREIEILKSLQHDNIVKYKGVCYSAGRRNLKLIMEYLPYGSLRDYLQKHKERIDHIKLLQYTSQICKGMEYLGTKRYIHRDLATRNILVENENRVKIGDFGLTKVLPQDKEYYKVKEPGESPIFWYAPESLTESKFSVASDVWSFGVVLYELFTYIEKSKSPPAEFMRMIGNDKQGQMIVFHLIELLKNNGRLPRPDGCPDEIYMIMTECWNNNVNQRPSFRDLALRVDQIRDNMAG
Summary of the method: (§1)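 HTRF detection (SA-APC plus Eu-labeled anti-phosphotyrosine Py20, 40 min after EDTA stop) quantified biotinylated-peptide phosphorylation. Kinase reactions with human JAK1 or JAK2 catalytic domains lasted 1 h at room temperature.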

human JAK1 = target: T2, human JAK1 (Homo sapiens, UniProt P23458); assay: In Vitro JAK Kinase Assay (HTRF, phosphorylation of a biotinylated peptide), JAK1; format: biochemical; details: catalytic domain a.a. 837-1142, assay of Example A
T2 construct: human JAK1 (a.a. 837-1142); His tag (N); made in house; host or cells: insect cells (baculovirus)
T2 sequence (P23458 849-1154): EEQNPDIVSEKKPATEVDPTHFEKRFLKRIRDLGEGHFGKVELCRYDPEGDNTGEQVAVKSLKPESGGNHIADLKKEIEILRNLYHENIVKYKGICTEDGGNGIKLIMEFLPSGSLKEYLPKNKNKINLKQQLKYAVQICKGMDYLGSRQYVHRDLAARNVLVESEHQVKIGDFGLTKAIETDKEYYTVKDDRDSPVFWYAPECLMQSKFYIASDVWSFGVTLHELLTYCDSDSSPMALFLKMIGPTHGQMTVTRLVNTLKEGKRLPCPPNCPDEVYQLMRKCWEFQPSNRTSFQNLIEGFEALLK
Summary of the method: as §1

## N#CCC1(n2cc(-c3ncnc4[nH]ccc34)cn2)CN([C@H]2CC[C@@H](Oc3cc(CN4CC[C@H](F)C4)nc(C(F)(F)F)n3)CC2)C1 [Example 31, {1-(cis-4-{[6-{[(3S)-3-fluoropyrrolidin-1-yl]methyl}-2-(trifluoromethyl)pyrimidin-4-yl]oxy}cyclohexyl)-3-[4-(7H-pyrrolo[2,3-d]pyrimidin-4-yl)-1H-pyrazol-1-yl]azetidin-3-yl}acetonitrile tris(trifluoroacetate)]
Human JAK2; Table 4
  JAK2/JAK1 IC50 ratio: ≧10
Human JAK1; Table 4
  IC50: < 10 nM

## CN(C)Cc1cc(O[C@H]2CC[C@@H](N3CC(CC#N)(n4cc(-c5ncnc6[nH]ccc56)cn4)C3)CC2)nc(C(F)(F)F)n1 [Example 1, {1-(cis-4-{[6-[(Dimethylamino)methyl]-2-(trifluoromethyl)pyrimidin-4-yl]oxy}cyclohexyl)-3-[4-(7H-pyrrolo[2,3-d]pyrimidin-4-yl)-1H-pyrazol-1-yl]azetidin-3-yl}acetonitrile tetrakis(trifluoroacetate)]
Human JAK2; Table 4
  JAK2/JAK1 IC50 ratio: ≧10
Human JAK1; Table 4
  IC50: < 10 nM

## N#CCC1(n2cc(-c3ncnc4[nH]ccc34)cn2)CN([C@H]2CC[C@@H](Oc3cc(CNC4CC4)nc(C(F)(F)F)n3)CC2)C1.O=C(O)C(F)(F)F.O=C(O)C(F)(F)F.O=C(O)C(F)(F)F [Example 7, {1-(cis-4-{[6-[(cyclopropylamino)methyl]-2-(trifluoromethyl)pyrimidin-4-yl]oxy}cyclohexyl)-3-[4-(7H-pyrrolo[2,3-d]pyrimidin-4-yl)-1H-pyrazol-1-yl]azetidin-3-yl}acetonitrile tris(trifluoroacetate)]
Human JAK2; Table 4
  JAK2/JAK1 IC50 ratio: ≧10
Human JAK1; Table 4
  IC50: < 10 nM

## CCCNCc1cc(O[C@H]2CC[C@@H](N3CC(CC#N)(n4cc(-c5ncnc6[nH]ccc56)cn4)C3)CC2)nc(C(F)(F)F)n1.O=C(O)C(F)(F)F.O=C(O)C(F)(F)F.O=C(O)C(F)(F)F [Example 32, {1-(cis-4-{[6-[(propylamino)methyl]-2-(trifluoromethyl)pyrimidin-4-yl]oxy}cyclohexyl)-3-[4-(7H-pyrrolo[2,3-d]pyrimidin-4-yl)-1H-pyrazol-1-yl]azetidin-3-yl}acetonitrile tris(trifluoroacetate)]
Human JAK2; Table 4
  JAK2/JAK1 IC50 ratio: ≧10
Human JAK1; Table 4
  IC50: < 10 nM

## C[C@H](CO)NCc1cc(O[C@H]2CC[C@@H](N3CC(CC#N)(n4cc(-c5ncnc6[nH]ccc56)cn4)C3)CC2)nc(C(F)(F)F)n1 [Example 17, {1-(cis-4-{[6-({[(1R)-2-hydroxy-1-methylethyl]amino}methyl)-2-(trifluoromethyl)pyrimidin-4-yl]oxy}cyclohexyl)-3-[4-(7H-pyrrolo[2,3-d]pyrimidin-4-yl)-1H-pyrazol-1-yl]azetidin-3-yl}acetonitrile tris(trifluoroacetate) (salt)]
Human JAK2; Table 4
  JAK2/JAK1 IC50 ratio: ≧10
Human JAK1; Table 4
  IC50: < 10 nM

## N#CCC1(n2cc(-c3ncnc4[nH]ccc34)cn2)CN([C@H]2CC[C@@H](Oc3cc(CN4CCC4)nc(C(F)(F)F)n3)CC2)C1 [Example 23, {1-(cis-4-{[6-(azetidin-1-ylmethyl)-2-(trifluoromethyl)pyrimidin-4-yl]oxy}cyclohexyl)-3-[4-(7H-pyrrolo[2,3-d]pyrimidin-4-yl)-1H-pyrazol-1-yl]azetidin-3-yl}acetonitrile tris(trifluoroacetate)]
Human JAK2; Table 4
  JAK2/JAK1 IC50 ratio: ≧10
Human JAK1; Table 4
  IC50: < 10 nM

## N#CCC1(n2cc(-c3ncnc4[nH]ccc34)cn2)CN([C@H]2CC[C@@H](Oc3cc(CN4CCCC4)nc(C(F)(F)F)n3)CC2)C1 [Example 25, {1-(cis-4-{[6-(pyrrolidin-1-ylmethyl)-2-(trifluoromethyl)pyrimidin-4-yl]oxy}cyclohexyl)-3-[4-(7H-pyrrolo[2,3-d]pyrimidin-4-yl)-1H-pyrazol-1-yl]azetidin-3-yl}acetonitrile tris(trifluoroacetate)]
Human JAK2; Table 4
  JAK2/JAK1 IC50 ratio: ≧10
Human JAK1; Table 4
  IC50: < 10 nM

## N#CCC1(n2cc(-c3ncnc4[nH]ccc34)cn2)CN([C@H]2CC[C@@H](Oc3cc(CNCC4CC4)nc(C(F)(F)F)n3)CC2)C1.O=C(O)C(F)(F)F.O=C(O)C(F)(F)F.O=C(O)C(F)(F)F [Example 9, {1-(cis-4-{[6-{[(cyclopropylmethyl)amino]methyl}-2-(trifluoromethyl)pyrimidin-4-yl]oxy}cyclohexyl)-3-[4-(7H-pyrrolo[2,3-d]pyrimidin-4-yl)-1H-pyrazol-1-yl]azetidin-3-yl}acetonitrile tris(trifluoroacetate)]
Human JAK2; Table 4
  JAK2/JAK1 IC50 ratio: ≧10
Human JAK1; Table 4
  IC50: < 10 nM

## CN(C)Cc1cc(O[C@H]2CC[C@@H](N3CC(CC#N)(n4cc(-c5ncnc6[nH]ccc56)cn4)C3)CC2)nc(C(F)(F)F)c1 [Example 68, {1-(cis-4-{[4-[(dimethylamino)methyl]-6-(trifluoromethyl)pyridin-2-yl]oxy}cyclohexyl)-3-[4-(7H-pyrrolo[2,3-d]pyrimidin-4-yl)-1H-pyrazol-1-yl]azetidin-3-yl}acetonitrile tris(trifluoroacetate)]
Human JAK2; Table 5
  JAK2/JAK1 IC50 ratio: ≧10
Human JAK1; Table 5
  IC50: < 10 nM

## N#CCC1(n2cc(-c3ncnc4[nH]ccc34)cn2)CN([C@H]2CC[C@@H](Oc3cc(CN4CCC4)cc(C(F)(F)F)n3)CC2)C1 [Example 78, {1-(cis-4-{[4-(azetidin-1-ylmethyl)-6-(trifluoromethyl)pyridin-2-yl]oxy}cyclohexyl)-3-[4-(7H-pyrrolo[2,3-d]pyrimidin-4-yl)-1H-pyrazol-1-yl]azetidin-3-yl}acetonitrile tris(trifluoroacetate)]
Human JAK2; Table 5
  JAK2/JAK1 IC50 ratio: ≧10
Human JAK1; Table 5
  IC50: < 10 nM

## N#CCC1(n2cc(-c3ncnc4[nH]ccc34)cn2)CN([C@H]2CC[C@@H](Oc3cc(CO)nc(C(F)(F)F)n3)CC2)C1 [Example 2, {1-(cis-4-{[6-(Hydroxymethyl)-2-(trifluoromethyl)pyrimidin-4-yl]oxy}cyclohexyl)-3-[4-(7H-pyrrolo[2,3-d]pyrimidin-4-yl)-1H-pyrazol-1-yl]azetidin-3-yl}acetonitrile bis(trifluoroacetate)]
Human JAK2; Table 4
  JAK2/JAK1 IC50 ratio: ≧10
Human JAK1; Table 4
  IC50: < 10 nM

## N#CCC1(n2cc(-c3ncnc4[nH]ccc34)cn2)CN([C@H]2CC[C@@H](Oc3cc(CNC4CCC4)nc(C(F)(F)F)n3)CC2)C1.O=C(O)C(F)(F)F.O=C(O)C(F)(F)F.O=C(O)C(F)(F)F [Example 10, {1-(cis-4-{[6-[(cyclobutylamino)methyl]-2-(trifluoromethyl)pyrimidin-4-yl]oxy}cyclohexyl)-3-[4-(7H-pyrrolo[2,3-d]pyrimidin-4-yl)-1H-pyrazol-1-yl]azetidin-3-yl}acetonitrile tris(trifluoroacetate)]
Human JAK2; Table 4
  JAK2/JAK1 IC50 ratio: ≧10
Human JAK1; Table 4
  IC50: < 10 nM

## N#CCC1(n2cc(-c3ncnc4[nH]ccc34)cn2)CN([C@H]2CC[C@@H](Oc3cc(CNC4CC4)cc(C(F)(F)F)n3)CC2)C1 [Example 72, {1-(cis-4-{[4-[(cyclopropylamino)methyl]-6-(trifluoromethyl)pyridin-2-yl]oxy}cyclohexyl)-3-[4-(7H-pyrrolo[2,3-d]pyrimidin-4-yl)-1H-pyrazol-1-yl]azetidin-3-yl}acetonitrile tris(trifluoroacetate)]
Human JAK2; Table 5
  JAK2/JAK1 IC50 ratio: ≧10
Human JAK1; Table 5
  IC50: < 20 nM

## CC(O)c1cc(OC2CCC(N3CC(CC#N)(n4cc(-c5ncnc6[nH]ccc56)cn4)C3)CC2)nc(C(F)(F)F)n1 (single isomer, unassigned) [Example 58, {1-(cis-4-{[6-(1-hydroxyethyl)-2-(trifluoromethyl)pyrimidin-4-yl]oxy}cyclohexyl)-3-[4-(7H-pyrrolo[2,3-d]pyrimidin-4-yl)-1H-pyrazol-1-yl]azetidin-3-yl}acetonitrile tris(trifluoroacetate) (salt)]
Human JAK2; Table 4
  JAK2/JAK1 IC50 ratio: ≧10
Human JAK1; Table 4
  IC50: < 10 nM

## N#CCC1(n2cc(-c3ncnc4[nH]ccc34)cn2)CN([C@H]2CC[C@@H](Oc3cc(CNCC4(CO)CC4)nc(C(F)(F)F)n3)CC2)C1 [Example 38, {1-(cis-4-{[6-[({[1-(hydroxymethyl)cyclopropyl]methyl}-amino)methyl]-2-(trifluoromethyl)pyrimidin-4-yl]oxy}cyclohexyl)-3-[4-(7H-pyrrolo[2,3-d]pyrimidin-4-yl)-1H-pyrazol-1-yl]azetidin-3-yl}acetonitrile tris(trifluoroacetate) (salt)]
Human JAK2; Table 4
  JAK2/JAK1 IC50 ratio: ≧10
Human JAK1; Table 4
  IC50: < 10 nM

## N#CCC1(n2cc(-c3ncnc4[nH]ccc34)cn2)CN([C@H]2CC[C@@H](Oc3cc(CNCC4CC4)cc(C(F)(F)F)n3)CC2)C1 [Example 76, {1-(cis-4-{[4-{[(cyclopropylmethyl)amino]methyl}-6-(trifluoromethyl)pyridin-2-yl]oxy}cyclohexyl)-3-[4-(7H-pyrrolo[2,3-d]pyrimidin-4-yl)-1H-pyrazol-1-yl]azetidin-3-yl}acetonitrile tris(trifluoroacetate)]
Human JAK2; Table 5
  JAK2/JAK1 IC50 ratio: ≧10
Human JAK1; Table 5
  IC50: < 10 nM

## N#CCC1(n2cc(-c3ncnc4[nH]ccc34)cn2)CN([C@H]2CC[C@@H](Oc3cc(CN)nc(C(F)(F)F)n3)CC2)C1 [Example 3, {1-(cis-4-{[6-(Aminomethyl)-2-(trifluoromethyl)pyrimidin-4-yl]oxy}cyclohexyl)-3-[4-(7H-pyrrolo[2,3-d]pyrimidin-4-yl)-1H-pyrazol-1-yl]azetidin-3-yl}acetonitrile tetrakis(trifluoroacetate)]
Human JAK2; Table 4
  JAK2/JAK1 IC50 ratio: ≧10
Human JAK1; Table 4
  IC50: < 10 nM

## C[C@H](O)CNCc1cc(O[C@H]2CC[C@@H](N3CC(CC#N)(n4cc(-c5ncnc6[nH]ccc56)cn4)C3)CC2)nc(C(F)(F)F)n1 [Example 19, {1-(cis-4-{[6-({[(2R)-2-hydroxypropyl]amino}methyl)-2-(trifluoromethyl)pyrimidin-4-yl]oxy}cyclohexyl)-3-[4-(7H-pyrrolo[2,3-d]pyrimidin-4-yl)-1H-pyrazol-1-yl]azetidin-3-yl}acetonitrile tris(trifluoroacetate) (salt)]
Human JAK2; Table 4
  JAK2/JAK1 IC50 ratio: ≧10
Human JAK1; Table 4
  IC50: < 10 nM
